Measurements published in publication PMC7766159, “Novel Psychoactive Phenethylamines: Impact on Genetic Material” (International Journal of Molecular Sciences, 2020).

Legend:
TK6 cells [1] = assay: Cytotoxicity analysis (Guava ViaCount, cell viability); assay type: cell-based, human; conditions: 26 h; for concentration up to which no cytotoxicity and cytostasis was induced: Guava ViaCount assay
Method: In the preliminary phase of the research, we determined the concentrations to be used in the subsequent experiments aimed at evaluating the potential genotoxicity of different molecules under study. First, we assessed the 2C-H, 2C-I, 2C-B, 25B-NBOMe, and MDMA-induced cytotoxicity after 26 h treatment (time required by TK6 cells to carry out two cell cycles) by measuring the percentage of live cells at the different concentrations tested (6.25, 12.5, 25, 35, 50, 75 µM). This value was normalized on the one obtained in the untreated control cultures C (-) equal to 100% in order to check whether the cellular viability complied with the OECD threshold (equal to 55 ± 5%).
(§1) In all experiments, aliquots of 2 × 10^5 of TK6 cells were treated with increasing concentrations of phenethylamines from 0 to 75 µM and incubated for 26 h, corresponding to two replication cycles for the analysis of cytotoxicity, cytostasis, apoptosis, and genotoxicity, while for the analysis of ROS, 1 h of treatment was performed.
Cytotoxicity assay was performed as previously described by Lenzi et al.. Briefly, at the end of the phenethylamines treatment time, 1.5 × 10^5 cells were stained with Guava ViaCount Reagent. The reagent contains the Propidium Iodide (PI) that allows us to discriminate viable from dead cells based on different permeability to DNA-binding dye.
180 μL of reagent were added to 20 μL of cell suspension and incubated for 5 min at room temperature (RT). After, a total of 1000 events were acquired and analyzed by Guava ViaCount software.
The results obtained from the samples treated with different concentrations of phenethylamines were normalized on those obtained from the untreated control cultures, accounted equal to 100%.

TK6 cells [2] = assay: Cytostasis analysis (Relative Population Doubling, Guava ViaCount); assay type: cell-based, human; conditions: for Relative Population Doubling (RPD): 26 h treatment, vs untreated control C (-) = 100%, mean ± SEM; for concentrations that caused an RPD value well above 55 ± 5% (OECD threshold): 26 h, tested 6.25-75 µM
From the text: In addition, to make the genotoxicity test reliable, it is necessary to check the cellular proliferation in order to verify that a sufficient number of cells has undergone mitosis and so transmitted the genetic damage suffered to the daughter cells. For this purpose, the OECD recommends the measurement of the Relative Population Doubling (RPD) to estimate the cytostasis and, analogously to the cytotoxicity, establishes a threshold at most equal to 55 ± 5% [45].
as §1
In parallel, always using the Guava ViaCount Reagent, the number of cells seeded at time 0 and that measured at the end of the phenethylamines treatment time was used to check the correct replication in the control cultures and to compare it to that measured in the treated cultures by the RPD, calculated as the following formula [46, 47]: RPD= (No. of Population doublings in treated cultures)/(No. of Population doublings in control cultures) × 100
Similarly to cytotoxicity, the cytostasis was checked in order to verify that cell proliferation respected the threshold established by the OECD guideline (55 ± 5%).

TK6 cells [3] = assay: Apoptosis analysis (Guava Nexin Assay); assay type: cell-based, human; conditions: 26 h
Method: as §1
The percentage of apoptotic cells was evaluated by the Guava Nexin Assay according to the procedure by Lenzi et al..
Briefly, at the end of the phenethylamines treatment time, the percentage of apoptotic cells was assessed using the Guava Nexin Reagent. The reagent contains the 7-aminoactinomycin D (7-AAD), a cell non-permeant dye, that allows discrimination between live and dead cells and the Annexin-V-PE that allows the identification of apoptotic cells by binding the phosphatidylserine on the cell surface.
100 μL of reagent were added to 100 μL of cell suspension (~1 × 10^5 cells) and incubated for 20 min at RT. After, a total of 2000 events were acquired and analyzed by Guava Nexin software.
The apoptotic cell percentages recorded in the cultures treated with phenethylamines different concentrations were normalized on those recorded in the untreated control cultures, accounted equal to 1 and expressed as apoptotic fold increase.

TK6 cells [4] = assay: Genotoxicity analysis (micronucleus frequency, automated flow cytometric protocol); assay type: cell-based, human; conditions: for MNi frequency fold increase: vs C (-); for relative genotoxic potency: comparison within the series
Method: as §1
The analysis of the MNi frequency was performed using a new automated flow cytometric protocol that we recently developed in our laboratory. The detailed protocol is described in the paper by Lenzi et al. and was used in our previous publication to analyze the genotoxicity of some synthetic cannabinoids.
Briefly, at the end of the phenethylamines treatment time, 7 × 10^5 cells were collected and incubated with 7-AAD at RT for 5 min, after which the cells were lysed and stained with SYTOX Green for 1 h. After, a total of 10,000 nuclei, derived from viable and proliferating cells (7-AAD negative), and the corresponding number of micronuclei were acquired. The discrimination between nuclei and MNi occurs on the basis of the different size analyzed by Forward Scatter (FSC), and the different intensity of green fluorescence (SYTOX Green).
The MNi frequencies (number of MNi/10,000 nuclei) recorded in treated cultures were normalized on those recorded in the untreated control cultures, accounted equal to 1 and expressed as MNi frequency fold increase.
As recommended by OECD guideline 487, we used MMC and VINB as positive controls, being known clastogen and aneuploidogen agents, respectively.

HepG2 cells = test system: HepG2 cells; parameters: method as in PMID 31068823; conditions: cited from earlier work
SH-SY5Y = test system: SH-SY5Y; parameters: method as in PMID 28067045, PMID 30925718, PMID 28527032; conditions: 2–24 h treatment, concentration-dependent (1000–3000 μM); cited from earlier work
HepG2 = test system: HepG2; parameters: method as in PMID 28645576; conditions: 24 h treatment; cited from earlier work
TK6 cells [5] = test system: TK6 cells; parameters: method as in PMID 27637481; conditions: CYP1A1, 1B1 and 1A2 not expressed; cited from earlier work
TK6 cells [6] = assay: ROS analysis (DCFH2-DA fluorescence); assay type: cell-based, human; conditions: 1 h; 35 µM for 2C-H, 2C-I and MDMA, 12.5 µM for 2C-B and 25B-NBOMe; vs C (-) equal to 1
Method: Lastly, in order to identify a possible mechanism of action at the basis of the genotoxic activity, TK6 cells were treated for 1 h with the highest concentration tested for each substance: 35 µM for 2C-H, 2C-I and MDMA, and 12.5 µM for 2C-B and 25B-NBOMe, and then the possible ROS induction was measured.
as §1
At the end of the phenethylamines treatment time, 2 × 10^5 cells were centrifuged, resuspended in PBS1X to measure intracellular ROS level and stained at 37 °C in the dark for 20 min with 2′,7′-dichlorodihydrofluorescin diacetate (DCFH2-DA). After, a total of 5000 events, derived from viable cells, were acquired and analyzed using Guava Incyte software.
The fluorescence intensity of 2′,7′-dichlorofluorescin (DCF) (which forms in cells in the presence of ROS) recorded in treated cultures was normalized on those recorded in the untreated control cultures, accounted equal to 1 and expressed as a ROS fold increase.

[7] = test system: undifferentiated and differentiated human SH-SY5Y cells; parameters: method as in PMID 28067045; conditions: cited from earlier work
primary rat hepatocytes = test system: primary rat hepatocytes; parameters: method as in PMID 27255387; conditions: 24 h; cited from earlier work
C2C12 myoblast cells = test system: C2C12 myoblast cells; parameters: method as in PMID 30925718; conditions: concentrations 30 times higher than in this study, 24 h; cited from earlier work
[8] = vs untreated control C (-) equal to 1, tested concentrations
[9] = both tested concentrations, 6.25 µM and 12.5 µM, 26 h

SMILES	Relative Population Doubling (RPD) (TK6 cells [2]; 6.25 µM)	Relative Population Doubling (RPD) (TK6 cells [2]; 12.5 µM)	Relative Population Doubling (RPD) (TK6 cells [2]; 25 µM)	Relative Population Doubling (RPD) (TK6 cells [2]; 35 µM)	Relative Population Doubling (RPD) (TK6 cells [2]; 50 µM)	Relative Population Doubling (RPD) (TK6 cells [2]; 75 µM)	concentrations that caused an RPD value well above 55 ± 5% (OECD threshold) (TK6 cells [2])	also measured
COc1cc(CCN)c(OC)cc1I [2C-I, 2,5-Dimethoxy-4-iodophenethylamine]	90.9% ± 0.7	89.6% ± 2.2	72.5% ± 2.0	63.9% ± 1.6	54.8% ± 0.9	30.8% ± 1.0	up to 35 µM	concentration up to which no cytotoxicity and cytostasis was induced (TK6 cells [1]): up to 35 µM; apoptosis fold increase (TK6 cells [3]; [8]): never reached a doubling; MNi frequency fold increase (TK6 cells [4]; 35 µM, 26 h): statistically significant increase
CC(N)Cc1ccccc1 (stereo not drawn) [amphetamine, α-methylphenylethylamine]								mitochondrial superoxide levels (HepG2 cells): increase mitochondrial superoxide levels
CC(N)Cc1ccc(F)cc1 (stereo not shown) [4-fluoroamphetamine, 4-Fluoroamphetamine]								mitochondrial superoxide levels (HepG2 cells): increase mitochondrial superoxide levels
COc1cc(CCNCc2ccccc2OC)c(OC)cc1Br [25B-NBOMe, 4-bromo-2,5-dimethoxy-N-[(2-methoxyphenyl)methyl]-benzeneethanamine]	86.4% ± 1.3	81.2% ± 2.0	50.0% ± 0.8	1.0% ± 0.2	0.0%	0.0%	up to 12.5 µM	concentration up to which no cytotoxicity and cytostasis was induced (TK6 cells [1]): up to 12.5 µM; apoptosis fold increase (TK6 cells [3]; [8]): never reached a doubling; MNi frequency fold increase (TK6 cells [4]; [9]): increased at both the tested concentrations; relative genotoxic potency (TK6 cells [4]): stronger genotoxic agents than 2C-I and 2C-H
CCCC(C(=O)c1ccc2c(c1)OCO2)N1CCCC1 (stereo not shown) [MDPV]								superoxide levels (SH-SY5Y): increase in superoxide levels; concentration that increased O2•− levels (HepG2): 2 mM
CCCC(C(=O)c1ccc2ccccc2c1)N1CCCC1 (stereo not shown) [naphyrone]								concentration that increased O2•− levels (HepG2): 0.2 mM
CCCC(C(=O)c1ccccc1)N1CCCC1 (stereo not shown) [αPVP]								superoxide levels (SH-SY5Y): increase in superoxide levels
COc1cc(CCN)c(OC)cc1Br [2C-B, 2,5-dimethoxy-4-bromophenethylamine]	95.9% ± 0.7	93.1% ± 2.1	69.7% ± 1.6	63.1% ± 1.6	10.0% ± 1.8	0.0%	up to 35 µM	concentration up to which no cytotoxicity and cytostasis was induced (TK6 cells [1]): up to 35 µM; apoptosis fold increase (TK6 cells [3]; 25 µM and 35 µM, vs C (-)): statistically significant increase; MNi frequency fold increase (TK6 cells [4]; [9]): increased at both the tested concentrations; relative genotoxic potency (TK6 cells [4]): stronger genotoxic agents than 2C-I and 2C-H
CNC(C)C(=O)c1ccc(C)cc1 (stereo not shown) [mephedrone]								concentration that increased O2•− levels (HepG2): 1 mM
CNC(C)C(=O)c1ccc2c(c1)OCO2 (stereo not shown) [methylone]								superoxide levels (SH-SY5Y): increase in superoxide levels
COc1ccc(OC)c(CCN)c1 [2C-H, 2,5-dimethoxyphenethylamine]	97.5% ± 0.9	81.1% ± 1.8	85.0% ± 2.4	74.0% ± 1.8	34.1% ± 1.2	13.0% ± 1.5	up to 35 µM	concentration up to which no cytotoxicity and cytostasis was induced (TK6 cells [1]): up to 35 µM; apoptosis fold increase (TK6 cells [3]; [8]): never reached a doubling; MNi frequency fold increase (TK6 cells [4]; 35 µM, 26 h): statistically significant increase
c1ccc2c(c1)cc1ccc3cccc4ccc2c1c34 [benzo [a] pyrene]								micronuclei induction (TK6 cells [5]): failed to induce micronuclei
CNC(C)Cc1ccc2c(c1)OCO2 (stereo not shown) [MDMA, 3,4-methylenedioxy-methamphetamine, reference compound]	96.0% ± 1.0	96.0% ± 0.8	98.7% ± 0.9	98.0% ± 1.5	96.0% ± 1.2	91.9% ± 1.3	all the concentrations tested	cytotoxic and cytostatic effect (TK6 cells [1]; all concentrations tested (6.25-75 µM)): did not show a cytotoxic and cytostatic effect; apoptosis fold increase (TK6 cells [3]; [8]): never reached a doubling; MNi frequency fold increase (TK6 cells [4]; 25 and 35 µM, 26 h): did not increase the MNi frequency in any case; genotoxicity (MN test outcome) (TK6 cells [4]; 26 h, without metabolic activation): not genotoxic; ROS fold increase (mean fluorescence intensity) (TK6 cells [6]): did not highlight any ROS level increase; production of ROS [7]: unable to trigger the production of ROS; ROS levels (primary rat hepatocytes): increase of ROS levels; mitochondrial superoxide production (C2C12 myoblast cells): increase in the mitochondrial superoxide production
CC(N)Cc1ccc(Cl)cc1 (stereo not shown) [4-chloroamphetamine]								mitochondrial superoxide levels (HepG2 cells): increase mitochondrial superoxide levels
